Columns and labels:
Test in all cases: IA-DTB cysteine engagement
Assay type in all cases: binding
Settings in all cases: 22Rv1 cells, 20 μM probe, 1 h, relative to DMSO
NUDT8_C207 = target: T1, NUDT8_C207 (Homo sapiens, UniProt Q8WV74)
T1 construct: endogenous in cells; host or cells: 22Rv1
T1 sequence (Q8WV74 1-236): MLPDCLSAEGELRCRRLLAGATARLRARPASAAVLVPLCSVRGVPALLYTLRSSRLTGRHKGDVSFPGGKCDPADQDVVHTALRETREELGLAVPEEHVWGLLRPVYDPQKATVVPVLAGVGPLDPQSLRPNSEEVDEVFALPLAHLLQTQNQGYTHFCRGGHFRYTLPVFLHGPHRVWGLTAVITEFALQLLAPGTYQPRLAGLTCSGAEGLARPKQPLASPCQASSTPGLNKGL
How it was run: (§1)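 Competitive chemoproteomics: residual cysteine reactivity toward IA-DTB in lysates from probe-treated cells was quantified by TMT reporter ions relative to DMSO-treated controls. Replicates sharing cell line, probe, concentration and duration were averaged.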

TM7SF2_C184 = target: T2, TM7SF2_C184 (Homo sapiens, UniProt O76062)
T2 construct: endogenous in cells; host or cells: 22Rv1
T2 sequence (O76062 1-418): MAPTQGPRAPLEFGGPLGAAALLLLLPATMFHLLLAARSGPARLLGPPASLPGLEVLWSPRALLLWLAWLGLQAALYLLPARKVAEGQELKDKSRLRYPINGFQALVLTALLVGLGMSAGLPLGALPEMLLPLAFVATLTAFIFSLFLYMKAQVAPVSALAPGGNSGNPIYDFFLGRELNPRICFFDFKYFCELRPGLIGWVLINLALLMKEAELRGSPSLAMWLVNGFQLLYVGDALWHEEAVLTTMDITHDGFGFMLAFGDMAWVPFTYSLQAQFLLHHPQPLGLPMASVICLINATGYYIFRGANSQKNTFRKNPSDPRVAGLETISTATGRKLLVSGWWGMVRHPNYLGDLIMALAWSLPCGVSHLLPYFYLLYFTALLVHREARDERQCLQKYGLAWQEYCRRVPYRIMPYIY
How it was run: as §1

FABP5_C127 = target: T3, FABP5_C127 (Homo sapiens, UniProt Q01469)
T3 construct: endogenous in cells; host or cells: 22Rv1
How it was run: as §1

HSDL1_C265 = target: T4, HSDL1_C265 (Homo sapiens, UniProt Q3SXM5)
T4 construct: endogenous in cells; host or cells: 22Rv1
T4 sequence (Q3SXM5 1-330): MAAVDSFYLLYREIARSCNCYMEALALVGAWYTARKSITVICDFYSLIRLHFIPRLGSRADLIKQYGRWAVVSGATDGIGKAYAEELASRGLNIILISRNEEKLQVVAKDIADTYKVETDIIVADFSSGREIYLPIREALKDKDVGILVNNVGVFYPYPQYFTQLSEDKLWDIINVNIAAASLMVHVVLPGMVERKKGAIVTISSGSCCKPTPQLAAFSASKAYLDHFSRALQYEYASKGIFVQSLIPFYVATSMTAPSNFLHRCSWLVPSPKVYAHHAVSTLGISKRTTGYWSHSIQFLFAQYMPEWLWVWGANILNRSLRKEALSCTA
How it was run: as §1

T3 sequence (Q01469 whole entry): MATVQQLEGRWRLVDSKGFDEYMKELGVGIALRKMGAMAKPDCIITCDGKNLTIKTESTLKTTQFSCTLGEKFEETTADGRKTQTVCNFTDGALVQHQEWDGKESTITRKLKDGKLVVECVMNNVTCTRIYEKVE

Question: How did the “% engagement NUDT8_C207” value (NUDT8_C207) turn out when `C=CC(=O)N1C[C@@H](c2ccc(Br)cc2)[C@H]1C(=O)Nc1cccc2cccnc12` [MY-1A, (2S,3R)-1-acryloyl-3-(4-bromophenyl)-N-(quinolin-8-yl)azetidine-2-carboxamide] was run?
Answer: 71.5%

Question: What about the “% engagement TM7SF2_C184” value (TM7SF2_C184) of the same molecule?
Answer: 86.5%

Question: What about the “% engagement FABP5_C127” value (FABP5_C127) of the same molecule?
Answer: 0%

Question: What about the “% engagement HSDL1_C265” value (HSDL1_C265) of the same molecule?
Answer: 52%

Question: For `C=CC(=O)N1C[C@H](c2ccc(Br)cc2)[C@@H]1C(=O)Nc1cccc2cccnc12` [MY-1B, (2R,3S)-1-acryloyl-3-(4-bromophenyl)-N-(quinolin-8-yl)azetidine-2-carboxamide], which “% engagement NUDT8_C207” value (NUDT8_C207) is on record?
Answer: 78.5%

Question: And the “% engagement TM7SF2_C184” value (TM7SF2_C184)?
Answer: 64%

Question: And the “% engagement FABP5_C127” value (FABP5_C127)?
Answer: 73%

Question: What about the “% engagement HSDL1_C265” value (HSDL1_C265) of the same molecule?
Answer: 54%

Question: With `C=CC(=O)N1C[C@H](c2ccc(Br)cc2)[C@H]1C(=O)Nc1cccc2cccnc12` [MY-3A, (2S,3S)-1-acryloyl-3-(4-bromophenyl)-N-(quinolin-8-yl)azetidine-2-carboxamide] as the molecule, how does the “% engagement NUDT8_C207” value (NUDT8_C207) read?
Answer: 64.25%

Question: And the “% engagement TM7SF2_C184” value (TM7SF2_C184)?
Answer: 66.5%

Question: And the “% engagement FABP5_C127” value (FABP5_C127)?
Answer: −13%

Question: And the “% engagement HSDL1_C265” value (HSDL1_C265)?
Answer: 64.25%

Question: How did the “% engagement NUDT8_C207” value (NUDT8_C207) turn out when `C=CC(=O)N1C[C@H](c2ccc(Br)cc2)[C@H]1C(=O)Nc1cccc2cccnc12` [MY-3B, (2S,3S)-1-acryloyl-3-(4-bromophenyl)-N-(quinolin-8-yl)azetidine-2-carboxamide] was run?
Answer: 88.75%

Question: What about the “% engagement TM7SF2_C184” value (TM7SF2_C184) of the same molecule?
Answer: 100%

Question: And the “% engagement FABP5_C127” value (FABP5_C127)?
Answer: −60.5%

Question: What about the “% engagement HSDL1_C265” value (HSDL1_C265) of the same molecule?
Answer: 82%
